Nine compounds from ChEMBL document CHEMBL4616705, “Computer-Aided Fragment Growing Strategies to Design Dual Inhibitors of Soluble Epoxide Hydrolase and LTA4 Hydrolase” (ACS Med Chem Lett, 2020) can be followed below.

The target in test [1] is T1, Bifunctional epoxide hydrolase 2 (Homo sapiens, UniProt P34913).
T1 sequence (P34913 whole entry): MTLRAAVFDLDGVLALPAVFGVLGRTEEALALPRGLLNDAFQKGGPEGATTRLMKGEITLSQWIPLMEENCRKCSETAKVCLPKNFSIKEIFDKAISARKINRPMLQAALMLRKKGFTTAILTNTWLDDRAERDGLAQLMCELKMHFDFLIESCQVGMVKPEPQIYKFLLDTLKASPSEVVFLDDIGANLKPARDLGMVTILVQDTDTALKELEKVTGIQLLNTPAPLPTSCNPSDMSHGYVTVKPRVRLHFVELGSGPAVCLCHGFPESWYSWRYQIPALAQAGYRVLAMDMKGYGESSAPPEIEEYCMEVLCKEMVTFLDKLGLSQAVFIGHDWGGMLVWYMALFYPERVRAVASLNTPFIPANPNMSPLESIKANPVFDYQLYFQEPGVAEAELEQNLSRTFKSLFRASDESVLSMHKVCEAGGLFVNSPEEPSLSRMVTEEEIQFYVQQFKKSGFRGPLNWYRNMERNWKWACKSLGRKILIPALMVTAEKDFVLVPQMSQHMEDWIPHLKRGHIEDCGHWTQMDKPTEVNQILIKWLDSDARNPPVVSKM
Briefly: Inhibition of recombinant human full length sEH (1 to 555 residues) expressed in Escherichia coli BL21 DE3 cells assessed as reduction in 6-methoxynaphthaldehyde formation using PHOME as substrate incubated for 45 mins followed by substrate addition and measured for 45 mins by fluorescence based assay.

Test [2] addresses T2, Leukotriene A-4 hydrolase (Homo sapiens) (UniProt P09960).
T2 sequence (whole entry): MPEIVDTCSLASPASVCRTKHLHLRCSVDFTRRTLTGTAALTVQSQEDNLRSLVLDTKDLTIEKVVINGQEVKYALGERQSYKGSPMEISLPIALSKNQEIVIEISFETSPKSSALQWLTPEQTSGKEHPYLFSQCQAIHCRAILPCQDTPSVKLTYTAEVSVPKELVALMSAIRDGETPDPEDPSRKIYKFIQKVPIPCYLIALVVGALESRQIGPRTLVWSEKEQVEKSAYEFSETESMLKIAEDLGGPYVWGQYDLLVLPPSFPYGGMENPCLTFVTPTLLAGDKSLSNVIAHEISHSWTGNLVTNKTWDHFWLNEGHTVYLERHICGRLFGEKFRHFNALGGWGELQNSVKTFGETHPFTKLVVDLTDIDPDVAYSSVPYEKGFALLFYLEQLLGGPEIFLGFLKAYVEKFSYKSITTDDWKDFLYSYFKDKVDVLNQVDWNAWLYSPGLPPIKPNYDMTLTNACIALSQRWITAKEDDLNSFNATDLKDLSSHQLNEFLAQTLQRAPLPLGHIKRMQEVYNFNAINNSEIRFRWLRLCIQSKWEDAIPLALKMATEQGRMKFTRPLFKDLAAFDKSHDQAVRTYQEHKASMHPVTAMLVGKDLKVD
Nature of the test: Inhibition of recombinant human full length C-terminal His6-tagged LTA4H expressed in Escherichia coli BL21 DE3 cells assessed as reduction in amino-4-methylcoumarin formation using L-arginine-7-amino-4-methylcoumarin as substrate at 10 uM incubated for 30 mins followed by substrate addition and measured for 30 mins by fluorescence based assay relative to control.

Test [3] addresses T3, Bifunctional epoxide hydrolase 2 (Homo sapiens) (UniProt P34913).
T3 sequence (whole entry): T1 sequence (P34913 whole entry)
Briefly: Inhibition of recombinant human full length sEH (1 to 555 residues) expressed in Escherichia coli BL21 DE3 cells assessed as reduction in 6-methoxynaphthaldehyde formation using PHOME as substrate at 10 uM incubated for 45 mins followed by substrate addition and measured for 45 mins by fluorescence based assay relative to control.

The target of test [4] is T4, Leukotriene A-4 hydrolase (Homo sapiens, UniProt P09960).
T4 sequence (P09960 whole entry): T2 sequence (whole entry)
Briefly: Inhibition of recombinant human full length C-terminal His6-tagged LTA4H expressed in Escherichia coli BL21 DE3 cells assessed as reduction in amino-4-methylcoumarin formation using L-arginine-7-amino-4-methylcoumarin as substrate incubated for 30 mins followed by substrate addition and measured for 30 mins by fluorescence based assay.

By pIC50 is commonly meant the negative decadic logarithm of the IC50, by convention in mol/L. A word on the inhibition: it is how much of the control response was suppressed.

SMILES strings stand for the structures. pIC50: −log10 of the molar value.

As to `CCOP(=O)(OCC)c1ccc(NC(=O)CCc2ccc(OCc3ccccc3)cc2)cc1`, the pIC50 in test [1] was 5.33. For `O=C(CCc1ccc(OCc2ccccc2)cc1)NCC1CCCN(CCc2ccccc2)C1` (stereo not given), in test [1], the pIC50 was 4.82. Turning to `O=C(CCc1ccc(OCc2ccccc2)cc1)NCC1CCN(c2cccc(Br)c2)C1` (stereo not given), the pIC50 in test [1] is 5.00. For the same compound, in test [2], the inhibition is 4%. Consider `O=C(CCc1ccc(OCc2ccccc2)cc1)NCC1CCN(CCCc2ccccc2)CC1`, for which, in test [3], the inhibition was 7%. For the same compound, the pIC50 in test [4] is 4.74. In the case of `O=C(CCc1ccc(OCc2ccccc2)cc1)Nc1ccc(CCN2CCOCC2)cc1`, the negative logarithm of the IC50 (pIC50) in test [1] is 5.89. Moreover, the inhibition in test [2] was 16%. The like results for `O=C(CCc1ccc(OCc2ccccc2)cc1)Nc1ccc(OCCN2CCCCCC2)cc1` were, in that order, 4.80 and 16%. In the case of `O=C(CCc1ccc(OCc2ccccc2)cc1)NCC1CCN(Cc2cccs2)CC1`, in test [1], the pIC50 was 6.30.

Consider `O=C(CCc1ccc(OCc2ccccc2)cc1)Nc1ccc(S(=O)(=O)NCC(F)(F)F)cc1`, for which the inhibition came to 6% in test [3] and 9% in test [2]. Turning to `O=C(CCc1ccc(OCc2ccccc2)cc1)NCCC1CCN(Cc2ccccc2)C1` (stereo not given), the pIC50 in test [1] is 4.55; in test [4], 5.49.
